Values quoted from earlier work as cited in patent publication US6121280A, “Azabicyclic rotomase inhibitors” (Pfizer Inc., priority 1999, dated 2000).

Tested on: neuronal cell line and culture models
Details: Lyons et al. 1994, Snyder et al. 1995

C=CC[C@@H]1/C=C(\C)C[C@H](C)C[C@H](OC)[C@H]2O[C@@](O)(C(=O)C(=O)N3CCCC[C@H]3C(=O)O[C@H](/C(C)=C/[C@@H]3CC[C@@H](O)[C@H](OC)C3)[C@H](C)[C@@H](O)CC1=O)[C@H](C)C[C@@H]2OC [FK-506]
neurite outgrowth in vitro: promoted neurite outgrowth
